Series [1] has as its system U-937 cells. The series is described as follows: Apoptosis in U-937 cells with Annexin V-FITC and propidium iodide (AnnV/PI), flow cytometry. The settings on record: 24 hours, compounds at 100-times their 72-hour IC50. In kind it is cell-based, human. The procedure: DMSO stocks of compounds were added to a 24-well plate in singlicate (0.2% DMSO final). After compound addition, 0.5 mL of a U-937 cell suspension (250,000 cells/mL) was added and allowed to incubate for 24 hours. Following treatment, the cell suspensions were transferred to flow cytometry tubes and pelleted (500 g, 3 min). The media was removed by aspiration, and cells were re-suspended in 200 μL AnnV binding buffer (10 mM HEPES, pH 7.4, 140 mM NaCl, 2.5 mM CaCl2) with 5 μg/mL PI and 1:90 dilution of AnnV. Samples were analyzed using flow cytometry.

Series [2] has as its system U-937 (hystiocytic lymphoma). The series is described as follows: 72-hour IC50 determination for non-adherent cells using MTS. The series is classed as cell-based, human. The settings on record: 72-hour exposure. Summed up:
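U-937 cells (5,000/well) in RPMI-1640 + 10% FBS were exposed to compounds in triplicate (1% DMSO final) for 72 h at 37 °C. Viability was read by PMS/MTS absorbance at 490 nm, with DMSO wells as live and cell-free wells as dead controls. IC50 came from three or more independent experiments.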

Series [3] relates to MCF-7 (breast carcinoma). The series is described as follows: 72-hour IC50 determination for adherent cells using sulforhodamine B (SRB). In kind it is cell-based, human. The settings on record: 72-hour exposure, error is standard deviation of the mean, n ≧ 3, read-out: MCF-7, 72-hour IC50 (Table E1-2).
The subject of series [4] is 786-O (renal carcinoma). The description is as above. The series is classed as cell-based, human. The settings on record: 72-hour exposure, error is standard deviation of the mean, n ≧ 3, read-out: 786-O, 72-hour IC50 (Table E1-2).
Series [5] deals with H460 (lung carcinoma). Described as above. The series is classed as cell-based, human. The settings on record: 72-hour exposure, error is standard deviation of the mean, n ≧ 3, read-out: H460, 72-hour IC50 (Table E1-2).
In series [6] the test system is human cancer cell lines. The series is described as follows: Anticancer activity in human cancer cell lines, not tied to one cell line. The series is classed as cell-based. The settings on record: for anticancer activity, in words: human cancer cell lines, 72-hour exposure. Summed up: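 Cells exposed 72 h to compound on a half-log scale (1% DMSO final); adherent lines (HeLa, H460, 786-O, MCF7) read by SRB staining at 510 nm, U-937 by MTS/PMS absorbance at 490 nm. IC50 from three or more independent experiments.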

In series [7] the test system is HeLa (cervical carcinoma). The series is described as follows: 72-hour IC50 determination for adherent cells using sulforhodamine B (SRB). The series is classed as cell-based, human. The settings on record: 72-hour exposure. In a few lines:
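HeLa cells were seeded at 5,000 cells/well in RPMI-1640 with 10% FBS and exposed continuously for 72 hours to compounds on a half-log scale (1% DMSO final, triplicate). Cells were then TCA-fixed, stained with sulforhodamine B and read at 510 nm. IC50 values came from three or more independent experiments.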

A short description of series [8]: Solubility observed on isolation. The settings on record: in CH2Cl2, CHCl3, EtOAc, MeOH, DMSO.
Setting [9] is: MTS, error is standard deviation of the mean, n ≧ 3, read-out: U-937, 72-hour IC50 (Table E1-1).
Setting [10] is: MTS, error is standard deviation of the mean, n ≧ 3, read-out: U-937, 72-hour IC50 (Table E1-2).
Where [11] appears, read: SRB, error is standard deviation of the mean, n ≧ 3, read-out: HeLa, 72-hour IC50 (Table E1-1).
The mark [12] stands for this setting: SRB, error is standard deviation of the mean, n ≧ 3, read-out: HeLa, 72-hour IC50 (Table E1-2).

A word on the IC50: it is the concentration at which inhibition is half-maximal.

Entries after “also recorded” stand apart in the source; their conditions may differ. Read-outs that look alike come from different tables or passages of the source.

For the compound `CN1C(=O)[C@@]23C[C@]4([C@]56C[C@@]78SSS[C@@](CO)(C(=O)N7[C@H]5Nc5ccccc56)N(C)C8=O)c5ccccc5N[C@@H]4N2C(=O)[C@]1(CO)SSS3` [Compound 5, (+)-chaetocin C], in series [1], the “induction of apoptosis (phosphatidylserine exposure / propidium iodide inclusion)” value is “induce caspase-dependent apoptotic cell death; also recorded: induce apoptosis”. Moreover, the half-maximal inhibitory concentration (IC50) in series [2] (setting [9]) was 0.75 ± 0.13 nM; in series [2] (setting [10]), 0.75 ± 0.13 nM; in series [3], 27 ± 11 nM; in series [4], 14.6 ± 0.8 nM; in series [5], 26 ± 9.3 nM; in series [7] (setting [11]), 6.3 ± 0.6 nM. In addition, in series [7] (setting [12]), the IC50 turned out to be 6.3 ± 0.6 nM. In series [6], the “anticancer activity, in words” value is “active across the board”.

As to `CN1C(=O)[C@@]23C[C@]4(c5c[nH]c6ccccc56)c5ccccc5N(S(=O)(=O)c5ccccc5)[C@@H]4N2C(=O)[C@@H]1S3` [Compound 25, C3-(Indol-3′-yl)epimonothiodiketopiperazine], the half-inhibitory concentration (IC50) was found to be 710 ± 134 nM in series [2] (Homo sapiens, U-937, MTS, error is standard deviation of the mean, n ≧ 3, read-out: U-937, 72-hour IC50 (Table E1-1)) and 1480 ± 182 nM in series [7] (Homo sapiens, HeLa, SRB, error is standard deviation of the mean, n ≧ 3, read-out: HeLa, 72-hour IC50 (Table E1-1)). The solubility entry in series [8] was “Limited solubility”.

On to `CN1C(=O)[C@@]23C[C@]4([C@]56C[C@@]78SS[C@@](C)(C(=O)N7[C@H]5N(S(=O)(=O)c5ccccc5)c5ccccc56)N(C)C8=O)c5ccccc5N(S(=O)(=O)c5ccccc5)[C@@H]4N2C(=O)[C@]1(C)SS3` [Compound 14, Dimeric epidithiodiketopiperazine], for which the “induction of apoptosis (phosphatidylserine exposure / propidium iodide inclusion)” value in series [1] is on record as “induce caspase-dependent apoptotic cell death; also recorded: induce apoptosis”. For the same compound, the IC50 in series [2] (setting [9]) was found to be 0.18 ± 0.06 nM; in series [2] (setting [10]) it was 0.18 ± 0.06 nM; in series [2] (read-out: IC50 (U-937)) it was 0.18 nM; in series [3] it was 1.65 ± 0.51 nM; in series [4], 1.55 ± 0.77 nM; in series [5] it was 1.53 ± 0.85 nM. The results for the 50% inhibitory concentration (IC50) in series [7] (setting [11]), in series [7] (setting [12]) and in series [7] (read-out: IC50 (HeLa)) were 0.09 ± 0.06 nM, 0.09 ± 0.06 nM and 0.09 nM, respectively. Further, the “anticancer activity, in words” value in series [6] is listed as “active across the board”. In addition, the “potency relative to (+)-12,12′-dideoxyverticillin A (3)” value in series [6] (more potent than the corresponding secondary aniline 3) was 2 orders of magnitude.

Source of the values: patent publication US9353150B2, “Substituted pyrazino[1′,2′:1 ,5]pyrrolo[2,3-b]-indole-1,4-diones for cancer treatment” (Massachusetts Institute of Technology, priority 2012, dated 2016).
